Reference: patent publication EP0416804B1, “External preparation containing amusulosin” (YAMANOUCHI PHARMACEUTICAL CO., LTD., priority 1989, dated 1991)
In brackets after ≈: the same amount, converted by molar mass. Read-outs that look alike come from different tables or passages of the source.

What was measured:
[1] = Solubility of AB-250 in water, ethanol and aqueous alcohol; type: physicochemical
Source text: 1. Data on the solubility increasing effect of aqueous alcohol:
The solubility of AB-250 in water of pH 5-7 was 0.4% and that in ethanol was 0.03%.
It is, thus, evident that the use of aqueous ethanol results in a remarkable increase in the solubility of the active compound.

[2] = system: ai-receptor; conditions: compared with prazosin hydrochloride; cited from earlier work
[3] = system: rabbit prostate, urethra and vesical triangle (trigone of the bladder); conditions: rabbit tissues; cited from earlier work
[4] = system: human urethra and vesical triangle; conditions: human tissues; cited from earlier work

| solubility ([1]; 50% ethanol, organic solvent or mixture, Michaelis buffer containing 50% of ethanol, pH 8, read-out: solubility in aqueous ethanol containing 50% of ethanol) [mg/mL] | solubility ([1]; 60% ethanol, organic solvent or mixture, Michaelis buffer containing 60% of ethanol, pH 7, read-out: solubility in aqueous ethanol containing 60% of ethanol) [mg/mL] | greater solubility in aqueous alcohol ([1]; aqueous alcohol compared with water and pure alcohol) | solubility ([1]; ethanol, organic solvent or mixture, read-out: solubility in ethanol) [mg/mL] | solubility increasing effect with isopropyl alcohol in lieu of ethanol ([1]; isopropyl alcohol used in lieu of ethanol) | solubility ([1]; water of pH 5-7, read-out: solubility in water) [mg/mL] | SMILES | ai-receptor blocking activity [2] | contraction of the rabbit prostate, urethra and vesical triangle [3] | contraction of the human urethra and vesical triangle [4] |
| --- | --- | --- | --- | --- | --- | --- | --- | --- | --- |
| 51 (≈ 125 mM) | 48 (≈ 117 mM) | no less than 10 fold | 0.3 (≈ 0.734 mM) | More or less the same effect | 4 (≈ 9.79 mM) | CCOc1ccccc1OCCNC(C)Cc1ccc(OC)c(S(N)(=O)=O)c1 (stereo not drawn) [AB-250, 5-[2-[[2-(o-Ethoxyphenoxy)-ethyl]amino]propyl]-2-methoxybenzenesulfonamide] |  |  |  |
|  |  |  |  |  |  | CCOc1ccccc1OCCNC(C)Cc1ccc(OC)c(S(N)(=O)=O)c1 (stereo not drawn) [amusulosin, 5-[2-[[2-(o-Ethoxyphenoxy)-ethyl]amino]propyl]-2-methoxybenzenesulfonamide] | higher than that of prazosin hydrochloride | reduces the contraction | reduces the contraction |
